The compounds below were run against USP1/UAF1 (Homo sapiens (Human), UniProt O94782) (assay: Deubiquitination assay for USP1/UAF1 activity (ubiquitin-rhodamine 110)). Details: Table 2; 0.05 nM USP1/UAF1, 150 nM ubiquitin-rhodamine.
Sequence of USP1/UAF1 (O94782 whole entry): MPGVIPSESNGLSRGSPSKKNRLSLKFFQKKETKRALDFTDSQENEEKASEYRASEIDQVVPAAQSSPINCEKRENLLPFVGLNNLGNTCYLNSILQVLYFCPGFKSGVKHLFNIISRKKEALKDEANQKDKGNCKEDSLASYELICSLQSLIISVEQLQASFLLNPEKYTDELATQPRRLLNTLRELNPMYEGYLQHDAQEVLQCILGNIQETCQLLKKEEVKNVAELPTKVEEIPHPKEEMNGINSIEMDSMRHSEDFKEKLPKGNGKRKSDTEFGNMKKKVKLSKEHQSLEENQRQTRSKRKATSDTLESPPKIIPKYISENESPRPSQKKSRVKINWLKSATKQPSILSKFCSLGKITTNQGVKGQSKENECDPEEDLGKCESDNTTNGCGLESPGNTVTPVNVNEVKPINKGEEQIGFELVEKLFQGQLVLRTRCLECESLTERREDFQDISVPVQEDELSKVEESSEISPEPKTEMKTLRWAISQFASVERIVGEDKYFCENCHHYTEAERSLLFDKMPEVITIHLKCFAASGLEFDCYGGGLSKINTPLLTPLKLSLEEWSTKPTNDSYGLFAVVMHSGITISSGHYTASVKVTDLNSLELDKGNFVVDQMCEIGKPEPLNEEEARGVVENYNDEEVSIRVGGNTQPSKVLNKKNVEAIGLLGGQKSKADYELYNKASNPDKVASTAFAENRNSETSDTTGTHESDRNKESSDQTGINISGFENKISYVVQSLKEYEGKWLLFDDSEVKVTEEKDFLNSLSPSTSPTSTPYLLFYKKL
Sequence of USP1/UAF1 (Q8TAF3 whole entry partner): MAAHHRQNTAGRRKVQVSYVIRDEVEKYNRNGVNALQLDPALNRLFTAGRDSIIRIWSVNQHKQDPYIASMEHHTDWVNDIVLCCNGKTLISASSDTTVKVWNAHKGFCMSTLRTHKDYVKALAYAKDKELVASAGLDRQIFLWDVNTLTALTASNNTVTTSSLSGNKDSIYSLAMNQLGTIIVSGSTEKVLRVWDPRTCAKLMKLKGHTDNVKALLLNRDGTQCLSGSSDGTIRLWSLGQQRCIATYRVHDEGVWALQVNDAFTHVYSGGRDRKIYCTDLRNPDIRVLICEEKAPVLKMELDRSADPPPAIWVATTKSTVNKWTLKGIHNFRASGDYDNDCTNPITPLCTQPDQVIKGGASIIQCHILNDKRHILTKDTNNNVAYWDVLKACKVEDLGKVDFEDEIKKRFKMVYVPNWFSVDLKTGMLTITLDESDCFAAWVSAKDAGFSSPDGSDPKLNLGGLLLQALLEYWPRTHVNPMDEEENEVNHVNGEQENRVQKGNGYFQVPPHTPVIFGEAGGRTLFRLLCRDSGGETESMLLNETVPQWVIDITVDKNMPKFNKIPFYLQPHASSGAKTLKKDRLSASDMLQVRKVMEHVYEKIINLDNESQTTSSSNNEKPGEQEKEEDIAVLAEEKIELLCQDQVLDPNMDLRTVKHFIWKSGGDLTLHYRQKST
Type: biochemical
Experimental: Certain Compounds of the Disclosure were assessed for USP1/UAF1 activity in a Ubiquitin Rhodamine assay modified from those described previously.
Deubiquitinase activity was measured using ubiquitin-rhodamine 110 as a substrate. Cleavage of the amide bond between rhodamine and the c-terminal glycine of ubiquitin yields an increase in fluorescence signal. The assay was conducted in 20 ul total volume of assay buffer (50 mM Tris-HCl, pH 7.8, 0.5 mM EDTA, 0.01% Bovine Serum Albumin, 1 mM DTT, 0.01% Tween-20), and 0.05 nM USP1/UAF1 enzyme.
Compounds, dissolved in DMSO were tested in dose response format, beginning at 10 uM.
Compounds depicted below were added to enzyme/assay buffer mix and incubated 10 min.
Data for all assay formats was calculated as percent inhibition compared with control wells. […] IC50 values were calculated using the standard four parameter curve fitting algorithm in either Prism GraphPad (La Jolla, Calif.) software, or Collaborative Drug Discovery (Burlingame, Calif.) CDD Vault.
In the case of `CC(C)c1ccccc1-c1ncc2ncn(Cc3ccc(-c4nc(C(F)(F)F)cn4C)cc3)c2n1` [drawing 719], the IC50 is reported as 10 to 100 nM. In the case of `CC(C)c1ccccc1-c1ncc2cnn(C(C)c3ccc(-c4nc(C(F)(F)F)cn4C)cc3)c2n1` (stereo not drawn) [drawing 726], the IC50 is reported as < 10 nM. With `Cc1nc(-c2ccccc2C(C)C)nc2c1cnn2Cc1ccc(-c2nc(C(F)(F)F)cn2C)cc1` the IC50 was < 10 nM. `COc1cccc(C)c1-c1ncc2cnn(Cc3ccc(-c4nc(C(F)(F)F)cn4C)cc3)c2n1` [drawing 717] was tested, and the IC50 was 10 to 100 nM. For `COc1cccc(OC)c1-c1ncc2cnn(Cc3ccc(-c4nc(C(F)(F)F)cn4C)cc3)c2n1` [drawing 714], the IC50 was 10 to 100 nM. `Cc1cc(C(F)F)nn1-c1ccc(Cn2ncc3cnc(-c4cccnc4C(C)C)nc32)cc1` [drawing 710] was tested, and the IC50 was 10 to 100 nM. `COc1nccc(C)c1-c1ncc2cnn(Cc3ccc(-c4nc(C(F)(F)F)cn4C)cc3)c2n1` [drawing 711] gave an IC50 of 10 to 100 nM. `COc1cnccc1-c1ncc2cnn(Cc3ccc(-c4nc(C(F)(F)F)cn4C)cc3)c2n1` was tested, and the IC50 was > 200 nM. `CC(C)c1ccccc1-c1ncc2cnn(Cc3ccc(-c4nc(C(F)(F)F)cn4C4CN(C)C4)cc3)c2n1` [drawing 725] was tested, and the IC50 was < 10 nM. For `CSc1cccc(C)c1-c1ncc2cnn(Cc3ccc(-c4nc(C(F)(F)F)cn4C)cc3)c2n1` [drawing 722], the IC50 was 10 to 100 nM. With `Cc1cccc(S(C)(=O)=O)c1-c1ncc2cnn(Cc3ccc(-c4nc(C(F)(F)F)cn4C)cc3)c2n1` the IC50 was 100 to 200 nM. For `CC(C)c1c(F)cccc1-c1ncc2cnn(Cc3ccc(-c4nc(C(F)(F)F)cn4C)cc3)c2n1` [drawing 728], the IC50 was < 10 nM. With `CCS(=O)(=O)c1ccccc1-c1ncc2cnn(Cc3ccc(-c4nc(C(F)(F)F)cn4C)cc3)c2n1` [drawing 709] the IC50 was 100 to 200 nM. `CC(C)c1ccccc1-c1ncc2cnn(Cc3ccc(-c4nc(C(F)(F)F)cn4C)cc3)c2n1` [drawing 730] was tested, and the IC50 was < 10 nM. With `COc1ncnc(C2CC2)c1-c1ncc2cnn(Cc3ccc(-n4nc(C(F)(F)F)cc4C)cc3)c2n1` [drawing 723] the IC50 was < 10 nM. With `COc1cccc(C2CC2)c1-c1ncc2cnn(Cc3ccc(-c4nc(C(F)(F)F)cn4C)cc3)c2n1` [drawing 724] the IC50 was < 10 nM. `Cn1cc(C(F)(F)F)nc1-c1ccc(Cn2ncc3cnc(-c4ccccc4S(C)(=O)=O)nc32)cc1` [drawing 707] was tested, and the IC50 was 100 to 200 nM.

Same assay, conditions: Table 3; 0.05 nM USP1/UAF1, 150 nM ubiquitin-rhodamine
With `CCOc1ncnc(OCC)c1-c1ncc2cnn(Cc3ccc(-c4nc(C(F)(F)F)cn4CC)cc3)c2n1` [drawing 733] the IC50 was < 10 nM. In the case of `COCCOc1ncnc(C2CC2)c1-c1ncc2cnn(Cc3ccc(-n4nc(C(F)(F)F)cc4C)cc3)c2n1` [drawing 781], the IC50 is reported as 100 to 200 nM. With `COc1ncnc(C(C)(C)F)c1-c1ncc2cnn(Cc3ccc(-c4nc(C(F)(F)F)cn4C)cc3)c2n1` [drawing 772] the IC50 was 10 to 100 nM. `COc1ncnc(C2CC2)c1-c1ncc2cnn(Cc3ccc(-c4nc(C(F)(F)F)c[nH]4)cc3)c2n1` [drawing 765] gave an IC50 of 10 to 100 nM. `CCn1cc(C(F)(F)F)nc1-c1ccc(Cn2ncc3cnc(-c4c(OCCF)ncnc4C4CC4)nc32)cc1` [drawing 741] gave an IC50 of 10 to 100 nM. With `CCn1cc(C(F)(F)F)nc1-c1ccc([C@H](C)n2ncc3cnc(-c4c(OC)ncnc4C4CCC4)nc32)cc1` (single isomer, unassigned) [drawing 748] the IC50 was 10 to 100 nM. Work on `Cn1cc(C(F)(F)F)nc1-c1ccc(Cn2ncc3cnc(-c4c(OC5CCOC5)ncnc4C4CC4)nc32)cc1` (stereo not drawn) yielded an IC50 of 100 to 200 nM. Work on `COc1ncnc(C2(C)CC2)c1-c1ncc2cnn(Cc3ccc(-c4nc(C(F)(F)F)cn4C)cc3)c2n1` [drawing 769] yielded an IC50 of 10 to 100 nM. `Cn1cc(C(F)(F)F)nc1-c1ccc(Cn2ncc3cnc(-c4c(C5CC5)ncnc4N4CCCC4)nc32)cc1` was tested, and the IC50 was > 200 nM. In the case of `COc1ncnc(C2CC2)c1-c1ncc2cnn([C@@H](C)c3ccc(-c4nc(C(F)(F)F)cn4C)cc3)c2n1` (single isomer, unassigned) [drawing 743], the IC50 is reported as 10 to 100 nM. Compound `COc1ncnc(C2CC2)c1-c1ncc2cnn(Cc3ccc(-c4nc(C(F)(F)F)cn4CCF)cc3)c2n1` [drawing 764] has an IC50 of 10 to 100 nM. In the case of `CN(C)c1ncnc(C2CC2)c1-c1ncc2cnn(Cc3ccc(-c4nc(C(F)(F)F)cn4C)cc3)c2n1`, the IC50 is reported as > 200 nM. `CCn1cc(C(F)(F)F)nc1-c1ccc(Cn2ncc3cnc(-c4c(OC)cnn4C4CC4)nc32)cc1` [drawing 761] showed an IC50 of 10 to 100 nM. `COc1ncnc(C2CCC2)c1-c1ncc2cnn(Cc3ccc(-c4nc(C(F)(F)F)cn4C)cc3)c2n1` [drawing 749] was tested, and the IC50 was 10 to 100 nM. With `COc1ncnc(C2CC2)c1-c1ncc2cnn(Cc3ccc(-n4nc(C(F)F)cc4C)cc3)c2n1` [drawing 762] the IC50 was 10 to 100 nM. `COc1ncnc(C2CC2)c1-c1ncc2cnn([C@H](C)c3ccc(-c4nc(C(F)(F)F)cn4C)cc3)c2n1` (single isomer, unassigned) [drawing 759] gave an IC50 of 10 to 100 nM. `COc1ncnc(C(C)(C)C)c1-c1ncc2cnn(Cc3ccc(-c4nc(C(F)(F)F)cn4C)cc3)c2n1` [drawing 757] showed an IC50 of 10 to 100 nM. `COc1ncnc(C2CC2)c1-c1ncc2cnn(Cc3ccc(-c4nc(C(F)(F)F)cn4C4CCC4)cc3)c2n1` [drawing 732] was tested, and the IC50 was < 10 nM. In the case of `CCOc1cc(C(F)(F)F)nn1-c1ccc(Cn2ncc3cnc(-c4c(OC)ncnc4C4CC4)nc32)cc1` [drawing 735], the IC50 is reported as < 10 nM. For `COc1ncnc(C2CC2)c1-c1ncc2cnn(Cc3ccc(-c4nc(C(F)(F)F)cn4CC(=O)N(C)C)cc3)c2n1`, the IC50 was > 200 nM. In the case of `CCn1cc(C(F)(F)F)nc1-c1ccc(Cn2ncc3cnc(-c4c(OC)ncnc4C4CC4)nc32)cc1` [drawing 738], the IC50 is reported as 10 to 100 nM. In the case of `COc1ncnc(C2CC2)c1-c1ncc2cnn(Cc3ccc(-c4nc(C(F)(F)F)cn4C)cc3F)c2n1` [drawing 758], the IC50 is reported as 10 to 100 nM. With `Cn1cc(C(F)(F)F)nc1-c1ccc(Cn2ncc3cnc(-c4c(OCc5ccccc5)ncnc4C4CC4)nc32)cc1` the IC50 was > 200 nM. `CCn1cc(C(F)(F)F)nc1-c1ccc(Cn2ncc3cnc(-c4c(OC(C)(C)C)ncnc4C4CC4)nc32)cc1` [drawing 740] showed an IC50 of 10 to 100 nM. For `COc1ncnc(OC)c1-c1ncc2cnn(Cc3ccc(-c4nc(C(F)(F)F)cn4C)cc3)c2n1` [drawing 766], the IC50 was 10 to 100 nM. `COc1ncnc(C2CC2)c1-c1ncc2cnn(Cc3ccc(-c4nc(C(F)(F)F)cn4C4CN(C)C4)cc3)c2n1` [drawing 775] showed an IC50 of 10 to 100 nM. `COc1nc(C)nc(C2CC2)c1-c1ncc2cnn(Cc3ccc(-c4nc(C(F)(F)F)cn4C)cc3)c2n1` [drawing 760] gave an IC50 of 10 to 100 nM. In the case of `CCn1cc(C(F)(F)F)nc1-c1ccc(Cn2ncc3cnc(-c4c(OC(F)F)ncnc4C4CC4)nc32)cc1` [drawing 731], the IC50 is reported as < 10 nM. `COc1ncnc(C2CC2)c1-c1ncc2cnn(Cc3ccc(-c4nc(C(F)(F)F)n(C)n4)cc3)c2n1` [drawing 778] gave an IC50 of 10 to 100 nM. With `COc1ncnc(C2CC2)c1-c1ncc2cnn(Cc3ccc(-c4nc(C(F)(F)F)cn4C)c(F)c3)c2n1` [drawing 746] the IC50 was 10 to 100 nM. In the case of `Cc1cnn(C(C)C)c1-c1ncc2cnn(Cc3ccc(-n4nc(C(F)(F)F)cc4C)cc3)c2n1` [drawing 734], the IC50 is reported as < 10 nM. For `COc1nc(C)c(-c2ncc3cnn(Cc4ccc(-c5nc(C(F)(F)F)cn5C)cc4)c3n2)c(OC)n1` [drawing 793], the IC50 was > 200 nM.

Same assay, conditions: Table 4; 0.05 nM USP1/UAF1, 150 nM ubiquitin-rhodamine
`CCOc1nn(Cc2ccc(-c3nc(C(F)(F)F)cn3CC)cc2)c2nc(-c3c(OC)ncnc3C3CC3)ncc12` [drawing 816] was tested, and the IC50 was 10 to 100 nM. For `CCn1c(-c2ccc(Cn3nc(OC)c4cnc(-c5c(OC)ncnc5C5CC5)nc43)cc2)nc(C(F)(F)F)c1Br` [drawing 811], the IC50 was 10 to 100 nM. In the case of `CCc1nc2cnc(-c3c(OC)ncnc3C3CC3)nc2n1Cc1ccc(-n2nc(C(F)(F)F)cc2C)cc1` [drawing 825], the IC50 is reported as 10 to 100 nM. Compound `COc1ncnc(C2CC2)c1-c1ncc2nc(C3CCC3)n(Cc3ccc(-n4nc(C(F)(F)F)cc4C)cc3)c2n1` [drawing 823] has an IC50 of 10 to 100 nM. `CCn1cc(C(F)(F)F)nc1-c1ccc(Cn2nc(OC)c3cnc(-c4c(OC)ncnc4C4CC4)nc32)cc1` [drawing 820] was tested, and the IC50 was 10 to 100 nM. `CCn1cc(C(F)(F)F)nc1-c1ccc(Cn2nc(N3CCC3)c3cnc(-c4c(OC)ncnc4C4CC4)nc32)cc1` [drawing 810] gave an IC50 of 10 to 100 nM. Work on `COc1ncnc(C2CC2)c1-c1ncc2nc(C)n(Cc3ccc(-n4nc(C(F)(F)F)cc4C)cc3)c2n1` [drawing 827] yielded an IC50 of 10 to 100 nM. `COc1ncnc(C2CC2)c1-c1ncc2ncn(Cc3ccc(-n4nc(C(F)(F)F)cc4C)cc3)c2n1` [drawing 830] was tested, and the IC50 was 100 to 200 nM. `COc1ncnc(C2CC2)c1-c1ncc2nnn(Cc3ccc(-c4nc(C(F)(F)F)cn4C)cc3)c2n1` [drawing 828] showed an IC50 of 10 to 100 nM. `COc1ncnc(C2CC2)c1-c1ncc2nc(C(C)C)n(Cc3ccc(-n4nc(C(F)(F)F)cc4C)cc3)c2n1` [drawing 824] gave an IC50 of 100 to 200 nM. In the case of `COc1ncnc(C2CC2)c1-c1ncc2c(OC)nn([C@@H](C)c3ccc(-c4nc(C(F)(F)F)cn4CCF)cc3)c2n1` [drawing 809], the IC50 is reported as 10 to 100 nM. In the case of `CCn1cc(C(F)(F)F)nc1-c1ccc(Cn2nc(OC)c3cnc(-c4c(OC)ncnc4C4CC4)nc32)cc1F` [drawing 817], the IC50 is reported as 10 to 100 nM. `COc1ncnc(C2CC2)c1-c1ncc2c(OC)nn(C(C)c3ccc(-c4nc(C(F)(F)F)cn4CCF)cc3)c2n1` (stereo not drawn) [drawing 812] showed an IC50 of 10 to 100 nM. For `CCOc1ncnc(C2CC2)c1-c1ncc2c(OCC)nn(Cc3ccc(-c4nc(C(F)(F)F)cn4CC)cc3)c2n1` [drawing 815], the IC50 was 10 to 100 nM. Compound `COc1ncnc(C2CC2)c1-c1ncc2nc(C(C)C)n(Cc3ccc(-c4nc(C(F)(F)F)cn4C(C)C)cc3)c2n1` [drawing 805] has an IC50 of 10 to 100 nM. Compound `CC(C)c1ccccc1-c1ncc2ncn(Cc3ccc(-c4nc(C(F)(F)F)cn4C)cc3)c2n1` [drawing 832] has an IC50 of 10 to 100 nM. For `COc1ncnc(C2CC2)c1-c1ncc2ncn(Cc3ccc(-c4nc(C(F)(F)F)cn4C)cc3)c2n1` [drawing 831], the IC50 was 100 to 200 nM.

Source: patent publication US11485736B2 (KSQ Therapeutics, Inc., priority 2018, dated 2022)
